This test relates to lung tumorigenesis. The test is described as follows: multi-organ carcinogenesis model in rats: suppression of lung tumorigenesis (histopathological examination of lung). In kind it is in vivo, male F344 rat. Conditions: for Frequency of Animals having Tumors, Adenoma (animals with tumor / animals in group) / Frequency of Animals having Tumors, Adenoma (percent) / Frequency of Animals having Tumors, Carcinoma (animals with tumor / animals in group) / Frequency of Animals having Tumors, Carcinoma (percent) / Frequency of Animals having Tumors, Sum of Tumors (animals with tumor / animals in group) / Frequency of Animals having Tumors, Sum of Tumors (percent) / Tumor Multiplicity, Carcinoma (average number of tumors per individual ± standard deviation) / Tumor Multiplicity, Adenoma (average number of tumors per individual ± standard deviation) / Tumor Multiplicity, Sum of Tumors (average number of tumors per individual ± standard deviation): lung, 23 weeks. The procedure: With respect to the compound 1 (13α, 14α-epoxy-3β-methoxyserratan-21β-ol) obtained in Example 1, activities for suppressing or inhibiting lung tumorigenesis were measured using a multi-organ carcinogenesis model in rats.
Diethylnitrosamine dissolved in saline was once administered interperitoneally to each male F344 rat at 6 weeks of age (Charles River Japan, Inc.) at a dose of 100 mg/kg body weight wherein this day was made to be day 1 of the testing. In succession, N-methyl-N-nitrosourea dissolved in saline was administered interperitoneally at a dose of 20 mg/kg body weight at day 4, 8, 11 and 15 of the testing (total four times of dosing). Furthermore, dimethylhydrazine dissolved in saline was administered subcutaneously at a dose of 40 mg/kg body weight at day 18, 22, 25, 29, 32 and 36 of the testing (total six times of dosing). In parallel with administration of these carcinogens, drinking water into which 0.05% N-butyl-N-(4-hydroxybutyl)nitrosamine was dissolved was allowed to ingest to the F344 rat from day 1 of the testing for the following four weeks. Thereafter, drinking water into which around 0.1% of 2, 2′-dihydroxy-di-n-propylnitrosamine was dissolved was allowed to ingest to the F344 rat for over two weeks from the beginning of week 5 to the end of week 6 of the testing. With respect to the F344 rat treated with a variety of carcinogens as described above, administration of the compound 1 was started from the beginning of week 8 of the testing. The compound 1 was dissolved into corn oil and forcibly administered orally into stomach using a sonde at a dose of 5 or 10 mg/kg body weight. The administration was implemented at a frequency of once a day, five days in a week, and continued for twenty three weeks. As a reference, untreated groups to which no compound 1 was administered were provided. After elapsed thirty weeks from starting the testing, each F344 rat had been sacrified to isolate a lung, and histopathological examination was conducted on the lung thus isolated. With respect to neoplastic lesions, they were classified into a benign or malignant lesion, and a number of animals each having a benign tumor or a malignant tumor and a number of tumors were counted in each group.

Setting [1] is: 5 mg/kg orally once a day, five days a week, examined after 30 weeks.
Where [2] appears, read: treated group vs untreated group, in words.

Consider “13α, 14α-epoxy-3β-methoxyserratan-21β-ol [Compound 1]”, for which, under setting [1], the “Frequency of Animals having Tumors, Adenoma (animals with tumor / animals in group)” value is reported as 11/20 and the “Frequency of Animals having Tumors, Adenoma (percent)” value is 55%. For the same substance, where the note is “5 mg/kg orally, P < 0.05”, the “Frequency of Animals having Tumors, Carcinoma (animals with tumor / animals in group)” value is 1/20; the “Frequency of Animals having Tumors, Carcinoma (percent)” value is reported as 5%; the “Frequency of Animals having Tumors, Sum of Tumors (animals with tumor / animals in group)” value is 11/20; the Frequency of Animals having Tumors, Sum of Tumors (percent) was 55%. Also, the “Tumor Multiplicity, Carcinoma (average number of tumors per individual ± standard deviation)” value (5 mg/kg orally, P < 0.05) is given as 0.05 ± 0.22. Besides, where the note is “5 mg/kg orally, p < 0.01”, the “Tumor Multiplicity, Adenoma (average number of tumors per individual ± standard deviation)” value was found to be 0.70 ± 0.80 and the “Tumor Multiplicity, Sum of Tumors (average number of tumors per individual ± standard deviation)” value came to 0.75 ± 0.85. Also, under “10 mg/kg orally”, the “Frequency of Animals having Tumors, Adenoma (animals with tumor / animals in group)” value is on record as 12/19; the “Frequency of Animals having Tumors, Adenoma (percent)” value is 67%; the “Frequency of Animals having Tumors, Carcinoma (animals with tumor / animals in group)” value was 5/19; the “Frequency of Animals having Tumors, Carcinoma (percent)” value is listed as 28%. Moreover, for the setting “10 mg/kg orally”, the “Frequency of Animals having Tumors, Sum of Tumors (animals with tumor / animals in group)” value is 13/19; the “Frequency of Animals having Tumors, Sum of Tumors (percent)” value came to 72%; the “Tumor Multiplicity, Carcinoma (average number of tumors per individual ± standard deviation)” value was determined as 0.29 ± 0.47. For the setting “10 mg/kg orally, P < 0.05”, the “Tumor Multiplicity, Adenoma (average number of tumors per individual ± standard deviation)” value is recorded as 1.00 ± 1.00 and the “Tumor Multiplicity, Sum of Tumors (average number of tumors per individual ± standard deviation)” value came to 1.22 ± 1.06. Under setting [2], the “frequency of animals each having tumor (adenoma or carcinoma) compared with the untreated group” value is “lower value” and the “tumor multiplicity (adenoma or carcinoma) compared with the untreated group” value was “lower value”.

For the origin of these results see patent publication US20070191492A1, “Method for suppressing lung tumorigenesis” (Sumitomo Chemical Company, Limited, priority 2003, published 2007).
